For assay [1], the system named is mauvaises herbes. As to the kind of experiment: Procedure 1 b): weed control, pre-emergence application. The assay is classed as in vivo. The conditions noted are these: 4000 g/ha (procédé 1B), visual rating 17 to 20 days after spraying, vs control pots. The source says:
(§1) Des quantités appropriées des composés d'essai ont été dissoutes dans de l'acétone pour obtenir des solutions équivalant à des taux d'application de 250, 1000 ou 4000 g de composé d'essai par hectare (g/ha).
Des graines de mauvaises herbes ont été semées à la surface de compost de mise en pot John Innes N°1 (7 parties par volume de terre végétale stérilisée, 3 parties en volume de gravier fin) dans des pots en matière plastique de 70 mm de côté et 75 mm de profondeur. Les quantités de graines par pot étaient les suivantes :
Les composés de la présente invention ont été appliqués aux graines non recouvertes de la manière décrite dans le paragraphe (a) ci-dessus et ces graines ont été recouvertes avec 25ml de sable liant après pulvérisation. Un seul pot de chaque espèce de mauvaise herbe a été attribué à chaque traitement, en association avec des témoins n'ayant pas subi de pulvérisation et des témoins ayant subi une pulvérisation avec de l'acétone seule. Après traitement, les pots ont été maintenus dans une serre et ont été arrosés par aspersion. L'évaluation visuelle de l'activité de destruction des mauvaises herbes a été effectuée 17 à 20 jours après pulvérisation. Les résultats ont été exprimés par le pourcentage de réduction de croissance ou de mortalité des mauvaises herbes, comparativement aux plantes présentes dans les pots témoins.

Assay [2] deals with mauvaises herbes. The assay is classed as in vivo. Conditions: post-emergence.
Source text: as §1
Des espèces de mauvaises herbes ont été cultivées, puis transplantées au stade de jeunes plants de semis dans du compost de mise en pot John Innes N°1 dans des pots en matière plastique de 70 mm de côté et 75 mm de profondeur, sauf en ce qui concerne Avena fatua, qui a été semée directement dans le pot d'essai et n' a pas été transplantée. Puis les plantes ont été cultivées dans la serre jusqu'à ce qu'elles soient prêtes à subir une pulvérisation avec les composés d'essai. Le nombre de plantes par pot et la croissance de la plante au moment de la pulvérisation étaient les suivantes :
Les composés d'essai ont été appliquées aux plantes de la manière décrite dans le paragraphe (a) ci-dessus. Un seul pot de chaque espèce de mauvaises a été attribué à chaque traitement, en association avec des témoins n'ayant pas subi de pulvérisation et des témoins ayant subi une pulvérisation avec de l'acétone seule. Après pulvérisation, les pots ont été arrossés par aspersion, en commençant 24 heures après pulvérisation. L'évalutation visuelle de la lutte contre la croissance des mauvaises herbes a été effectuée 17 à 20 jours après pulvérisation. Les résultats ont été exprimés en pourcentage de réduction de croissance ou de mortalité des mauvaises herbes, comparativement aux plantes présentes dans les pots témoins.

The structures appear in SMILES notation. Where two headings read alike, the source gives them in different places. Bounds are passed on as bounds.

On to `CN(C)S(=O)(=O)n1c(-c2ncccc2C(=O)O)nc2cc(OC(F)(F)F)ccc21` [compound 92], for which the “réduction de la croissance d'une ou plusieurs des espèces de mauvaises herbes” value in the assay with mauvaises herbes [1] and in the assay on mauvaises herbes [2] was at least 90% each time.

Regarding `CN(C)S(=O)(=O)n1c(-c2ncccc2C(=O)OCC(F)(F)F)nc2ccccc21` [compound 100], the “réduction de la croissance d'une ou plusieurs des espèces de mauvaises herbes” value in the assay with mauvaises herbes [1] and with mauvaises herbes [2] was at least 90% throughout.

With `C=CCOC(=O)c1cccnc1-c1nc2ccccc2n1S(=O)(=O)N(C)C` [compound 101], the “réduction de la croissance d'une ou plusieurs des espèces de mauvaises herbes” value with mauvaises herbes [1] and in the assay with mauvaises herbes [2] was at least 90% throughout.

The values above are taken from patent EP0429372A1, “2-Azolyl nicotinate derivatives as herbicides” (RHONE-POULENC AGROCHIMIE, priority 1989, dated 1991).
